{"source": "ChEMBL document CHEMBL1148570", "about": "“Acryloylamino-salicylanilides as EGFR PTK inhibitors” (Bioorg Med Chem Lett, 2006)", "key": {"[1]": {"target": "Epidermal growth factor receptor (Homo sapiens) (UniProt P00533)", "sequence (P00533 whole entry)": "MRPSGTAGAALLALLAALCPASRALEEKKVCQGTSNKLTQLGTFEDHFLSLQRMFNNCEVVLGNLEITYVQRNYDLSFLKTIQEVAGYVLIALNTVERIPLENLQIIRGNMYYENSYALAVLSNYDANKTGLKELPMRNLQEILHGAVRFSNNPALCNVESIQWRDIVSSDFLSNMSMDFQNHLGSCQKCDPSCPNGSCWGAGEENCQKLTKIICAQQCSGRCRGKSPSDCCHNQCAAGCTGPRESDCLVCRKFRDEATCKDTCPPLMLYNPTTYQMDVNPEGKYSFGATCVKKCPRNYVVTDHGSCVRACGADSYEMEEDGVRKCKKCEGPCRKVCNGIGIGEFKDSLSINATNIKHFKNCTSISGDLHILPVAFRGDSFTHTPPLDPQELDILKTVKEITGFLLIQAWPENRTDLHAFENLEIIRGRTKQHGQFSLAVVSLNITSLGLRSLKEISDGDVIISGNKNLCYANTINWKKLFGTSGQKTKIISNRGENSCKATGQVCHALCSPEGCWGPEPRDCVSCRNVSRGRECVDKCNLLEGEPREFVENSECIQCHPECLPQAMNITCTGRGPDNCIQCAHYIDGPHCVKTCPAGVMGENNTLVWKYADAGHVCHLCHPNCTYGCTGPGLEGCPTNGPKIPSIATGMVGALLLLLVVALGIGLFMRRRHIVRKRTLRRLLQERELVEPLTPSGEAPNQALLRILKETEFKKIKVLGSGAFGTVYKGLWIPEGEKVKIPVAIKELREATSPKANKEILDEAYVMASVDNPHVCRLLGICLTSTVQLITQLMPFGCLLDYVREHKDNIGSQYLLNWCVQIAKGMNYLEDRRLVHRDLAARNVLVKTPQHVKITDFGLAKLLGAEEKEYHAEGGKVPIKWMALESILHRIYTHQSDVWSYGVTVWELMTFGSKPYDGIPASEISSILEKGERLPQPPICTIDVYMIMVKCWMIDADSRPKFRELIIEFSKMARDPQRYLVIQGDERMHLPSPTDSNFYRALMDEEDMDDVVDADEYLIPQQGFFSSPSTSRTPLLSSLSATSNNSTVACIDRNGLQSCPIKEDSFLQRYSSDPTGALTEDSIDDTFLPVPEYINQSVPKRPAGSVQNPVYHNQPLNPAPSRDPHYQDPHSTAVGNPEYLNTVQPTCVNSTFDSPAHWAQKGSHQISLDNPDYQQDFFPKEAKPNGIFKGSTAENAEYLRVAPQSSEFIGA", "experiment": "Inhibition of EGFR PTK at 1 uM"}, "[2]": {"target": "Epidermal growth factor receptor (Homo sapiens) (UniProt P00533)", "experiment": "Inhibition of EGFR PTK at 0.01 uM"}, "[3]": {"target": "Epidermal growth factor receptor (Homo sapiens) (UniProt P00533)", "experiment": "Inhibition of EGFR PTK at 10 uM"}, "[4]": {"target": "Epidermal growth factor receptor (Homo sapiens) (UniProt P00533)", "experiment": "Inhibition of EGFR PTK at 0.1 uM"}}, "data": [{"smiles": "C=CC(=O)Nc1ccc(O)c(C(=O)Nc2cccc(Br)c2)c1", "values": [{"measurement": "inhibition", "setting": "[1]", "result": 90.6, "unit": "%"}, {"measurement": "inhibition", "setting": "[2]", "result": 52.9, "unit": "%"}, {"measurement": "inhibition", "setting": "[3]", "result": 93, "unit": "%"}, {"measurement": "inhibition", "setting": "[4]", "result": 89.5, "unit": "%"}]}, {"smiles": "CCC(=O)Nc1ccc(C(=O)Nc2cccc(C(=O)N(CC)CC)c2)c(O)c1", "values": [{"measurement": "inhibition", "setting": "[3]", "result": 46.6, "unit": "%"}]}, {"smiles": "C=CC(=O)Nc1ccc(C(=O)Nc2cccc(Br)c2)c(O)c1", "values": [{"measurement": "inhibition", "setting": "[1]", "result": 89.9, "unit": "%"}, {"measurement": "inhibition", "setting": "[2]", "result": 76, "unit": "%"}, {"measurement": "inhibition", "setting": "[3]", "result": 91.3, "unit": "%"}, {"measurement": "inhibition", "setting": "[4]", "result": 88.2, "unit": "%"}]}, {"smiles": "C=CC(=O)Nc1ccc(C(=O)Nc2cccc(Oc3ccccc3)c2)c(OC)c1", "values": [{"measurement": "inhibition", "setting": "[3]", "result": 1.59, "unit": "%"}]}, {"smiles": "C=CC(=O)Nc1ccc(C(=O)Nc2cccc(Cl)c2)c(O)c1", "values": [{"measurement": "inhibition", "setting": "[1]", "result": 46.3, "unit": "%"}, {"measurement": "inhibition", "setting": "[3]", "result": 62.6, "unit": "%"}, {"measurement": "inhibition", "setting": "[4]", "result": 21.6, "unit": "%"}]}, {"smiles": "C=CC(=O)Nc1ccc(C(=O)Nc2ccc(Oc3ccccc3)cc2)c(O)c1", "values": [{"measurement": "inhibition", "setting": "[1]", "result": 28.1, "unit": "%"}, {"measurement": "inhibition", "setting": "[2]", "result": 0, "unit": "%"}, {"measurement": "inhibition", "setting": "[3]", "result": 62.2, "unit": "%"}, {"measurement": "inhibition", "setting": "[4]", "result": 0.8, "unit": "%"}]}, {"smiles": "CCC(=O)Nc1ccc(C(=O)Nc2ccc(Oc3ccccc3)cc2)c(O)c1", "values": [{"measurement": "inhibition", "setting": "[3]", "result": 48.5, "unit": "%"}]}, {"smiles": "C=CC(=O)Nc1ccc(C(=O)Nc2cccc(C(=O)N3CCCC3)c2)c(O)c1", "values": [{"measurement": "inhibition", "setting": "[1]", "result": 88.6, "unit": "%"}, {"measurement": "inhibition", "setting": "[2]", "result": 26, "unit": "%"}, {"measurement": "inhibition", "setting": "[3]", "result": 91, "unit": "%"}, {"measurement": "inhibition", "setting": "[4]", "result": 84.2, "unit": "%"}]}, {"smiles": "C=CC(=O)Nc1ccc(C(=O)Nc2cccc(C(O)c3ccccc3)c2)c(O)c1", "note": "(configuration not stated)", "values": [{"measurement": "inhibition", "setting": "[1]", "result": 91.7, "unit": "%"}, {"measurement": "inhibition", "setting": "[2]", "result": 49.3, "unit": "%"}, {"measurement": "inhibition", "setting": "[3]", "result": 93.5, "unit": "%"}, {"measurement": "inhibition", "setting": "[4]", "result": 84.8, "unit": "%"}]}, {"smiles": "C=CC(=O)Nc1ccc(C(=O)Nc2cccc(C(O)c3ccccc3)c2)c(OC)c1", "note": "(configuration not stated)", "values": [{"measurement": "inhibition", "setting": "[3]", "result": 5.84, "unit": "%"}]}, {"smiles": "C=CC(=O)Nc1ccc(C(=O)Nc2cccc(C(=O)N3CCCCC3)c2)c(O)c1", "values": [{"measurement": "inhibition", "setting": "[1]", "result": 91.2, "unit": "%"}, {"measurement": "inhibition", "setting": "[2]", "result": 75.1, "unit": "%"}, {"measurement": "inhibition", "setting": "[3]", "result": 91.9, "unit": "%"}, {"measurement": "inhibition", "setting": "[4]", "result": 88, "unit": "%"}]}, {"smiles": "C=CC(=O)Nc1ccc(C(=O)Nc2cccc(Oc3ccccc3)c2)c(O)c1", "values": [{"measurement": "inhibition", "setting": "[1]", "result": 89.3, "unit": "%"}, {"measurement": "inhibition", "setting": "[2]", "result": 18.8, "unit": "%"}, {"measurement": "inhibition", "setting": "[3]", "result": 91.2, "unit": "%"}, {"measurement": "inhibition", "setting": "[4]", "result": 86.6, "unit": "%"}]}, {"smiles": "C=CC(=O)Nc1ccc(O)c(C(=O)Nc2cccc(Cl)c2)c1", "values": [{"measurement": "inhibition", "setting": "[1]", "result": 38.3, "unit": "%"}, {"measurement": "inhibition", "setting": "[3]", "result": 73.1, "unit": "%"}, {"measurement": "inhibition", "setting": "[4]", "result": 23.3, "unit": "%"}]}, {"smiles": "C=CC(=O)Nc1ccc(C(=O)Nc2cccc(C(=O)N(CC)CC)c2)c(O)c1", "values": [{"measurement": "inhibition", "setting": "[1]", "result": 54.4, "unit": "%"}, {"measurement": "inhibition", "setting": "[2]", "result": 14.1, "unit": "%"}, {"measurement": "inhibition", "setting": "[3]", "result": 63.9, "unit": "%"}, {"measurement": "inhibition", "setting": "[4]", "result": 40.4, "unit": "%"}]}]}
